This is an account of results in US6590123B2, “Aminobenzoic acid derivatives having anti-tumorigenic activity, methods of making and using the same” (Mount Sinai School of Medicine of New York University, priority 1998, dated 2003).

Values joined by “and” are separate entries in the source; they are usually repeats but may differ in a detail not shown here. Equal entries are not always repeated. “Also recorded” adds a separate entry of the source. Where two headings read alike, the source gives them in different places. Where only a bound is given, the exact number is not on record here.

By IC50 is commonly meant the midpoint of a concentration-inhibition curve.

Data set [1] relates to CEM cells. Nature of the data set: Morphology by microscopy (mitotic arrest, apoptosis, necrosis). Type of data set: cell-based, human. The settings on record: for Mitotic arrest, %: % of mitotic cells after 24 h incubation, optical microscopy; for Activities of inducing Apoptosis / Activities of inducing Mitotic block / Activities of inducing Necrosis / morphological effect on leukemic cells: CEM leukemic cells; for Activities of inducing Apoptosis / Activities of inducing Mitotic block / Activities of inducing Necrosis: % of affected cells. The method, then:
Slides for examination of mitosis were prepared on a cytospin centrifuge (Shandon Southern Products Ltd, England ) at 700 g for 5 min. Slides were air dried, fixed in methanol and stained with Giemsa (Harleco, N.J.) at room temperature for 15 min. Cells in mitotic arrest were recognized by the disappearance of nuclear membrane and by the appearance of chromosomal scattering throughout the cytoplasm (reference 1). The % of mitotic cells were counted after 24 h incubation using optical microscopy. Apoptotic cells were identified using common criteria, i.e., shrinkage in cell size, chromatin condensation and fragmentation of the nucleus into discrete masses (reference 2).
Cell samples on slides were prepared by a Cytospin centrifuge (Shandon Southern Products Ltd, England) at 700 g for 5 min. The slides were air dried, fixed in methanol and stained with Giemsa (Harleco, N.J.) at room temperature for 15 min. Alterations of nuclei, membranes and morphological features were observed by light microscopy. Cells in mitotic phase were recognized by the appearance of their chromosomes dispersed in the cytoplasm, and by the disappearance of nuclear membrane. Apoptotic-cells were identified using previously defined criteria, i.e., shrinkage in cell size, chromatin condensation and fragmentation of the nucleus into discrete masses (references 2 & 3). Necrotic cells were differentiated from apoptotic cells by observing swollen cytoplasm and the disappearance of cell membrane prior to the destruction of the nucleus.

Data set [2] deals with CEM cells. Nature of the data set: Cytotoxicity, ID50 and ID90 by trypan blue staining. Type of data set: cell-based. The following applies: for IC90 / IC50: Homo sapiens, CCRF-CEM; for IC90: 48 h; for IC50: 48 hr, NT = Non-toxic to CEM cells. The protocol:
CEM cells, a human T-cell lymphoblastoid leukemia cell line (American Type Culture Collection, Rockville, Md.), were cultured in suspension (Iscove's Dulbecco's Medium) supplemented with 10% heat inactivated fetal bovine serum (FBS), penicillin (250 μ/ml) and streptomycin (250 μl/ml). Cells were incubated at 37° C. in 5% C02 and only those cells in exponential growth were used.
CEM cells were seeded into 96-well microplates (Falcon, Oxnard, Calif.) at 10^5 cell per well, then treated with 0-10 μg/ml of the candidate compounds for 48 h at 37° C. yielding a total volume of 250 μ/well. Cell viability was assessed by trypan blue staining. ID50 and ID90 were defined as the concentration killing 50% or 90% of the cells in comparison with untreated controls, and calculated by non-linear regression analysis.
Cells in suspension culture were seeded into 96-well microplates (Falcon, Oxnard, Calif.) at 10^5 cell per well, followed, by treatment with 0-10 μg/ml of the candidate compounds for 48 hr at 37° C. with total volume of 250 μl per well. Cell viability was assessed by trypan blue exclusion.
The ID50 and ID90 was determined in duplicate in every set of experiments, and each experiment was repeated 3 times under identical conditions. ID50 and ID90 were defined as drug concentrations that induced 50% or 90% cellular death in comparison with untreated controls and calculated by non-linear regression analysis. […]

The test system of data set [3] is Purified tubulin. Nature of the data set: Inhibition of microtubule assembly by spectrophotometry, cell free system. The settings on record: cell free tubulin, up to 10 μg/ml. Type of data set: biochemical, calf. The method, then:
Purified tubulin was purchased from Sigma (St. Louis, Mo.). The effects of compounds 6, 7, 8, 9, paclitaxel and vinblastine on the microtubule assembly-disassembly process were determined using conditions recommended by the vendor. For assembly inhibition, 100 μl tubulin solution (500-600 μg protein/ml) was mixed gently with 400 μl reaction buffer containing 0.1 M MES (2-[N-morpholino]ethane sulfonic acid), 1 mM EGTA ([…]-N,N,N′,N′-tetraacetic acid), 0.5 mM MgCl2, 0.1 mM EDTA and 2.5 M gycerol at 37° C. Compounds 6, 7, 8, and 9 were next added to each sample at final concentrations of 10, 10, 1 and 1 μg/ml, respectively. After adding GTP to each sample to a final concentration of 1 mM, the microtubule assembly process was monitored by measuring the change of absorbance (OD) at 350 nm on a spectrophotometer (Ultrospec III, Pharmacia LKB, Uppsala, Sweden). A completed assembly process was observed within 40 min at room temperature. For disassembly inhibition, compounds 6, 7, 8, and 9 were added, at the above concentrations, to covets with repolymerized microtubules as described above, and incubated in melting ice. Changes of absorbance (OD) were monitored at 350 nm for 30 min until the OD values in the controls returned to the starting level, i.e., when the assembly-disassembly cycle was completed.
Purified tubulin from calf brain was purchased from Sigma (St. Louis, Mo.). The effects of 3-BAABU (3-bromoacetoamido, benzoylurea) on the microtubule assembly-disassembly process were determined using the conditions recommended by the vendor. For assembly inhibition, 100 μl tubulin solution (500-600 μg protein/ml) was mixed gently with 400 μl reaction buffer containing 0.1 M MES, 1 mM EGTA, 0.5 mM MgCl2, 0.1 mM EDTA and 2.5 M glycerol at 37° C. 3-BAABU, paclitaxel or vinblastine were then added to each sample cuvet at final concentrations of 3.3, 23 or 22 μM, respectively. After adding GTP to each sample to a final concentration of 1 mM, the microtubule assembly process was monitored by measuring the change of absorbance (OD) every 5 min at 350 nm on a spectrophotometer (Ultrospec III, Pharmacia LKB, Uppsala, Sweden). A completed assembly process was observed within 40 min at room temperature. For disassembly inhibition, 3-BAABU (3.3 μM), paclitaxel (23 μM) or vinblastine (22 μM) was added to a cuvet with repolymerized microtubules according to the method described above, and incubated in melting ice. Changes of absorbance (OD) were monitored at 350 nm for 30 min until the OD values in the controls returned to the starting level, i.e., completion of the assembly-disassembly cycle. Solvent solutions were used as control and had no effect in either the assembly or disassembly process.

For data set [4], the system named is CEM cells. Nature of the data set: Cell cycle analysis by flow cytometry. Type of data set: cell-based, human. The following applies: 8 h treatment, compound 6 2.5 μg/ml, compound 8 0.025 μg/ml, compound 9 0.005 μg/ml. (In general: A flow cytometer gives signals particle by particle.)
Data set [5] relates to CEM cells. Nature of the data set: DNA fragmentation by electrophoresis (apoptosis). Type of data set: cell-based, human. The following applies: 48 hours, compound 8 0.025 μg/ml, compound 9 0.005 μg/ml, fluorine compound 5.0 μg/ml, chlorine compound 0.75 μg/ml. The method, then:
DNA fragmentation was determined by a method reported previously (reference 3). Briefly, cells were treated in 1 ml lysis buffer (0.01M Tris. HCL pH 8.0, 0.01M NaCl, 0.01M EDTA pH 8.0 and 5% sodium dodecyl sulfate) containing 1 μg/ml protease K for 1 h at 50° C. The resulting products were extracted with phenol and chloroform:isoamylalcohol (24:1, v/v), and precipitated with ethanol followed by centrifugation at 7800 g (Sorvall RC-5B Du Pont, Newtown, Conn.). The ethanol was removed and the dry pellets of nucleic acid were resuspended in 10 mM Tris-HCL/1 mM EDTA solution. When DNA content was determined spectrophotometrically all samples had A260/A280 ratio≧2. The DNA samples were then treated with RNase (Sigma, St. Louis, Mo.) at a final concentration of 0.1 μg/μl for 20 min at 37° C. before gel loading. Approximately 4 μg size DNA aliquots were loaded onto horizontal agarose gel (1.5%) prepared with 1% ethidium bromide. Electrophoresis was performed at 75 volts for 2 h and the DNA patterns were visualized with UV light.
[…] After incubation, cells were washed twice in PBS. Cell pellets were resuspended in drug-free medium and incubated for 48 hr at 37° C. Cell viability, morphology, mitotic spindles, cell cycle distribution and apoptosis were determined 24 hr and 48 hr post pulse exposure.
Soluble DNA from cells was extracted by the method reported previously (14). Briefly, after washing with PBS, cells were treated in 1 ml lysis buffer (0.01 M Tris.HCL pH 8.0, 0.01 M NaCl, 0.01M EDTA pH 8.0 and 5% sodium dodecyl sulfate) containing 1 μg/ml proteinase K for 1 hr at 50° C. The resulting products were extracted with phenol and chloroform:isoamylalcohol (24:1, v/v), and precipitated with ethanol followed by centrifugation at 7800 g (Sorvall RC-5B Du Pont, Newtown, Conn.). The ethanol was removed and the dry pellet of nucleic acid was resuspended in 10 mM Tris-HCL/1 mM EDTA solution. DNA content was determined spectrophotometrically by measuring absorption at 260 nm (A260). All samples, had A260/A280≧2. The DNA samples were then treated with RNase (Sigma, St. Louis, Mo.) at a final concentration of 0.1 μg/l for 20 min at 37° C. before gel loading. The DNA sample (4 μg) was analyzed in 1.5% horizontal agarose gel prepared with 1% ethidium bromide. Electrophoresis was performed at 75 volts for 2 hours and the DNA migration was visualized under UV light.

[6] abbreviates: CEM cells, concentration killing 90% of the cells, read-out: ID90 (the source's name).

As to `NC(=O)NC(=O)c1ccc(NC(=O)CI)cc1` [9 (4-position), 4-iodoacetoamido, benzoylurea], the “Mitotic arrest, %” value in data set [1] (CEM cells) is given as under 10%. Besides, the IC90 in data set [2] (setting [6]) is 0.04 µg/mL and 112 nM.
With `CCOC(=O)c1cccc(NC(=O)CCl)c1` [Compound 10, Ethyl-3-chloroacetoamido, benzoate], in data set [1] (CEM cells), the “Mitotic arrest, %” value is under 10%. In addition, the IC90 in data set [2] (setting [6]) is 0.82 µg/mL and 3.39 µM.
For the molecule `NC(=O)NC(=O)c1cccc(NC(=O)CF)c1` [Compound 6, 3-Fluoroacetoamido, benzoylurea], the “effect on microtubule assembly” value in data set [3] is listed as “no effect”. For the same molecule, in data set [1] (CEM cells, 24 h, compound 8 at 0.025 μg/ml, compound 9 at 0.005 μg/ml), the “mitotic arrest (blocking) effect, morphological appearance” value is “failed to induce mitotic arrest”. The “Mitotic arrest, %” value in data set [1] (CEM cells) is listed as under 10%. Also, the “interference with the cell cycle” value in data set [1] (CEM cells, after 24 hours treatment, 2.5 μg/ml) was “virtually no interference”. Also, in data set [4], the “shift of the cell population from G0/G1 (2N) to G2/M (4N), DNA profile” value is listed as “undetectable change; also recorded: identical to that of the untreated control”. For the same molecule, the “apoptosis, DNA fragmentation on gel electrophoresis” value in data set [5] is given as “did not induce apoptosis”. Besides, the IC90 in data set [2] (read-out: ID90) was > 2.5 µg/mL and > 10 µM. For the same molecule, the “cytotoxicity against human leukemic cells (CEM)” value in data set [2] (at a concentration as high as 10 μM) was “no cytotoxicity”.
Regarding “3-bromopropionylamino benzoylurea [Compound 3-BPABU]”, in data set [1], the “Activities of inducing Apoptosis” value was “− (−:<10%)”, the “Activities of inducing Mitotic block” value is on record as “− (−:<10%)” and the “Activities of inducing Necrosis” value is “− (−:<10%)”. In addition, in data set [2] (CEM leukemic cells), the “cytotoxic activity (ID50 level) compared with 3-BAABU” value was “cytotoxic activity was eliminated”.
For `NC(=O)NC(=O)c1ccc(NC(=O)CBr)cc1` [Compound 4-BAABU, 4-bromoacetylamino benzoylurea], in data set [1] (CEM cells), the “Mitotic arrest, %” value is under 10%. Besides, in data set [1], the “morphological effect on leukemic cells” value was “necrotic cell death”, the “Activities of inducing Apoptosis” value was “− (−:<10%)”, the “Activities of inducing Mitotic block” value is recorded as “− (−:<10%)” and the “Activities of inducing Necrosis” value is given as “++++ (++++: >75%)”. In data set [2] (setting [6]), the IC90 was 0.15 µg/mL and 497 nM. The midpoint of inhibition in data set [2] (CEM leukemic cells), the IC50, lay at 230 nM.
`CCOC(=O)c1cccc(NC(=O)CBr)c1` [Compound 11, Ethyl-3-bromoacetoamido, benzoate]: in data set [1] (CEM cells), the “Mitotic arrest, %” value is reported as under 10%. Moreover, in data set [1], the “morphological effect on leukemic cells” value was “caused apoptosis”, the “Activities of inducing Apoptosis” value is given as “++++ (++++: >75%)”, the “Activities of inducing Mitotic block” value is “− (−:<10%)” and the “Activities of inducing Necrosis” value is “− (−:<10%)”. Further, in data set [2] (CEM leukemic cells), the “fold increase of ID50 relative to 3-BAABU” value was 10 fold and the IC50 was determined as 590 nM. The IC90 in data set [2] (setting [6]) was 0.18 µg/mL and 740 nM.
